How the values were obtained:
[1] = system: Raw 264.7 (ATCC TIB71) cells; assay: Evaluation of cell survival rate of macrophages (MTT); assay type: cell-based, mouse; conditions: Raw 264.7, 10 μM, 24 hours
Protocol: Raw 264.7 (ATCC TIB71) cells, the mouse derived macrophages', were inoculated in a 96-well plate containing DMEM (Dulbecco's modified Eagle medium; Welgene, Korea) supplemented with 10% FBS (Fetal Bovine Serum), 2 mM glutamine, penicillin (100 unit/ml), and streptomycin (100 μg/ml) at the density of 1×10^4 cells/well. The cells were cultured in 5% CO2 at 37° C. for 4 hours to attach the cells onto the plate. Next, the cells were treated with each sample at different concentrations, followed by further culture for 24 hours. To investigate the cell survival rate, 5 mg/ml of MTT (3-(4,5-dimethylthiazol-2-yl)-2,5-diphenyltetrazoliumbromide, Amresco, OH, USA) was distributed thereto (10 μl/well), followed by culture for 4 hours. Then, the supernatant was eliminated. Formazan reduced from MTT by mitochondria was dissolved in 100 μl of DMSO and then OD570 was measured. 0.2% DMSO was used for the negative control.

[2] = system: Tumor Necrosis Factor Alpha (TNF-alpha); assay: Inhibition of TNF-alpha generation in LPS-treated Raw 264.7 cells (ELISA); assay type: cell-based; conditions: Mus musculus, RAW264.7; Raw 264.7, LPS treated; read-out: Grades of IC50 on TNF-alpha generation
Protocol: Raw 264.7 cells were distributed by the same manner as described in Experimental Example <2-1>, which were treated with the samples selected due to their high NO and IL-6 suppressing effect at different concentrations. TNF-alpha included in the supernatant was measured by enzyme-linked immunosorbent assay (TNF-alpha ELISA kit, R&D Systems, MN, USA).
Particularly, 100-fold diluted supernatant was distributed in a 96-well plate on which TNF-alpha antibody was attached, followed by adhesion for 2 hours. The supernatant remaining after the adhesion was washed with a washing buffer. The detection antibody and HRP were adhered on the washed plate for 1 hour. The remaining antibody was washed. Color development was induced by using TMB substrate. The reaction was terminated with sulfuric acid solution. Then, OD450 was measured. TNF-alpha in the supernatant was quantified by using the standard curve made with the standard TNF-alpha included in the kit. TNF-alpha suppression rate was calculated by measuring the same concentration that could inhibit TNF-alpha generation up to 50% in the LPS treated group and the results are shown in Table 9.

[3] = system: serum IgE; assay: Level of serum IgE in asthma mice; assay type: in vivo, mouse; conditions: OVA asthma Balb/c mice, 5 or 15 mg/kg PO, FIG. 4
Protocol: (§1) 6 week old Balb/c female mice in the average weight of 20 g were adapted for 1 week. 2 mg of aluminum hydroxide (A8222, Sigma, St. Louis, Mo.) and 20 μg of ovalbumin (A5503, sigma, St. Louis, Mo.) were suspended in phosphate buffer (pH 7.4). Each mouse was administered with 200 μl of the phosphate buffer suspension via intraperitoneal injection for sensitization at 2 weeks intervals. The mouse was forced to inhale 1% ovalbumin (OVA) through ultrasonic atomizer for 30 minutes a day for 3 days after the first intraperitoneal injection of ovalbumin. 24 hours after the antigen administration, airway hyperreactivity was measured. 48 hours later, a lethal dose of pentobarbital (Entobar, Hanlim Pharma. Co., Ltd.) was administered to the mouse. The bronchus was opened and the alveoli were washed with 1.4 ml of saline. Then, the test samples were obtained. The normal control (NC) was not administered with ovalbumin nor inhaled. The asthma induced group (OVA) was administered with ovalbumin and inhaled to induce bronchial asthma. The comparative control was orally administered with dexamethasone (2 mg/kg, PO) one hour before the inhalation (DEX). […]
After performing the experiment of Experimental Example <3-1> above, the level of serum IgE relating to the severity of asthma was measured by enzyme immunoassay. […] Then, OD650 was measured.

[4] = system: interleukin 5; assay: Interleukin 5 in bronchoalveolar lavage fluid of asthma mice (ELISA); assay type: in vivo, mouse; conditions: OVA asthma Balb/c mice, 5 or 15 mg/kg PO, FIG. 2
Protocol: as §1, with “asthma.” for “asthma. The comparative control was orally administered with dexamethasone (2 mg/kg, PO) one hour before the inhalation (DEX).”
After performing the experiment of Experimental Example <3-1> above, Th2 cytokine (interleukin 5, 13) in bronchoalveolar was measured by sandwich type enzyme immunoassay. […] The content of each cytokine was measured using the kit according to the manufacturer's instruction.

[5] = system: Nitrogen Oxide (NO) generation; assay: Inhibition of nitrogen oxide (NO) generation in LPS-treated Raw 264.7 cells (Griess); assay type: cell-based, mouse; conditions: Raw 264.7, LPS 500 ng/ml, 24 hours
Protocol: Raw 264.7 (ATCC TIB71) cells were inoculated in a 96-well plate containing the same medium as used in Experimental Example 1 at the density of 1×10^5 cells/well. The cells were cultured in 5% CO2 at 37° C. for 4 hours to attach the cells onto the plate. The cells were treated with each sample at different concentrations, followed by further culture for 1 hour. […] were treated thereto at the final concentration of 500 ng/ml, followed by further culture for 24 hours. 100 μl of the supernatant was taken and transferred in a new plate, which was mixed with Griess reagent (a mixture of 1% sulfanilamide, 0.1% N-[1-naphthyl]-ethylenediamine dihydrochloride, and 5% phosphoric acid), followed by reaction for 10 minutes. Then, OD540 was measured. NO generation was quantified by using the sodium nitrite standard curve prepared from […] dissolved in the same medium at different concentrations. Considering the NO generation of the inflammation induced macrophages as 100%, the NO generation inhibition rate was calculated and presented in Table 7.

Compound: COc1cc(CCCO)cc2cc(-c3ccc(C)cc3)oc12 [Example 4, 3-(7-methoxy-2-p-tolylbenzofuran-5-yl)propane-1-ol]
- Grades of cell survival rate (%, in 10 μM) [1]: A (A: 90<A≤100)
- IC50 [2]: 1000 to 3000 nM
- generation of serum IgE induced by OVA [3]: efficiently reduced
- content of interleukin 5 in bronchoalveolar lavage fluid [4]: significantly reduced
- Grades of NO generation inhibition rate (%) [5]: B (B: 25<B≤35)

From patent publication US10053443B2, “2-phenylbenzofuran derivatives, method for preparing the same and use of the same for treating inflammatory disease” (KOREA RESEARCH INSTITUTE OF BIOSCIENCE AND BIOTECHNOLOGY, priority 2014, dated 2018)
